Test results from US5968526A, “T cell epitopes of the major allergens from Dermatophagoides (house dust mite)” (Immulogic Pharamaceutical Corporation, priority 1995, dated 1999).

What was measured:
[1] = system: T cell lines primed in vitro with Der p I; assay: T cell proliferation with fine map and modified Group I peptides (Example XIV); format: cell-based, human; conditions: for positive T cell responses, modified peptides: 18 T cell lines, affinity purified Der p I primed, FIG. 31a
Description: Long term T cell lines were established by stimulation of 2×10^6 PBL/ml in bulk cultures of complete medium (RPMI-1640, 2 mM L-glutamine, 100 U/ml penicillin/streptomycin, 5×10^-5 M 2-mercaptoethanol, and 10 mM HEPES supplemented with 5% heat inactivated human AB serum) with 30 μg/ml of purified native Der p I or Der p II for 5-6 days at 37° C. in a humidified 5% CO2 incubator to select for house dust mite protein allergen reactive T cells. This amount of priming antigen was determined to be optimal for the activation of T cells from house dust mite allergic patients. Viable cells were purified by LSM centrifugation and cultured in complete medium supplemented with 5 units recombinant human IL-2/ml and 5 units recombinant human IL-4/ml for up to three weeks until the cells no longer responded to lymphokines and were considered "rested". The ability of the T cells to proliferate to selected peptides, purified Der p I or Der p II, or positive (PHA) controls or negative controls (medium only) was then assessed. For assay, 2×10^4 rested cells were restimulated in the presence of 2×10^4 autologous Epstein-Barr virus (EBV)-transformed B cells (prepared as described below) (gamma-irradiated with 25,000 RADS) or with 5×10^4 autologous PBMs (gamma-irradiated with 3500 RADS), with 2-50 μg/ml of purified native Der p I or Der p II in a volume of 200 μl complete medium in duplicate or triplicate wells in 96-well round bottom plates for 3 days. Each well then received 1 μCi tritiated thymidine for 16-20 hours. The counts incorporated were collected onto glass fiber filter mats and processed for liquid scintillation counting. […] The titrations were used to optimize the dose of peptides in T cell assays.
The maximum response in a titration of each peptide is expressed as the stimulation index (S.I.). The S.I. is the counts per minute (CPM) incorporated by cells in response to peptide, divided by the CPM incorporated by cells in medium only. […] The positive results were used in calculating mean stimulation indices for each peptide for the individual patient tested.
The above procedure was followed with 18 patients in the studies using peptides derived from Der p I and Der f I (FIGS. 31a-b), and 21 patients in the studies with Der p II peptides (FIGS. 32a-b). Individual patient results were used in calculating the mean S.I. for each peptide if the patient responded to the Der p I or Der p II protein at an S.I. of 2.0 or greater and the patient responded to at least one peptide derived from a house dust mite allergen at an S.I. f 2.0 or greater. A summary of positive experiments from the patients tested is shown in FIGS. 32a and 32b and FIGS. 33a and 33b. The bars represent the positivity index. […] In parenthesis above each bar are the mean stimulation indices for each peptide or protein for the group of patients tested.
Autologous EBV-transformed cell lines were γ-irradiated with 25,000 Rad and used as antigen presenting cells in secondary proliferation assays and secondary bulk stimulations. These EBV-transformed cell lines were made by incubating 5×10^6 PBL with 1 ml of B-59/8 Marmoset cell line (ATCC CRL1612, American Type Culture Collection, Rockville, Md.) conditioned medium in the presence of 1 μg/ml phorbol 12-myristate 13-acetate (PMA) at 37° C. for 60 minutes in 12×75 mm polypropylene round-bottom Falcon snap cap tubes (Becton Dickinson Labware, Lincoln Park, N.J.). These cells were then diluted to 1.25×10^6 cells/ml in RPMI-1640 as described above except supplemented with 10% heat-inactivated fetal bovine serum and cultured in 200 μl aliquots in flat bottom culture plates until visible colonies were detected. They were then transferred to larger wells until the cell lines were established.

[2] = system: T cell cultures reactive with Der p I from house dust mite-allergic subjects; assay: secondary T cell proliferation assay, Group I (Der p I) overlapping and candidate/unique peptides; percent of T cell reactivity; format: cell-based, human; conditions: patient 1733; for T cell stimulation index (S.I.): highest S.I. ≥2.0 recorded
Source text: To determine whether a peptide (candidate peptide) or a combination of candidate peptides are likely to comprise a sufficient percentage of the T cell reactivity of house dust mite protein allergens, to induce T cell nonresponsiveness in a substantial percentage of a population of individuals sensitive to house dust mite allergen, an algorithm can be used. In accordance with one such algorithm, a set of overlapping peptides is produced by systematically dividing the protein allergen(s) of interest into al least two overlapping peptide regions of desired lengths (e.g., of about 12-30 amino acid residues in length, preferably not longer than about 25 amino acid residues in length with about 5-15 amino acid residues of overlap). This division into peptide regions can be arbitrary, can be made according to an algorithm, or can be wholly or partially based on regions of house dust mite Group I and/or Group II protein allergens known to comprise at least one T cell epitope. Preferably, at least 50% of the entire house dust mite protein allergen sequence and more preferably, the entire house dust mite protein allergen sequence is divided into two or more peptides. A human T cell stimulation index is determined for each of the peptides in an in vitro T cell proliferation assay as described herein for each individual tested in a population of individuals sensitive to the protein antigen. For example both WO93/08279 and WO94/24281 disclose T cell studies with overlapping peptides derived from Der p I, Der p II, Der f I and Der f II. A candidate peptide or combination of candidate peptides is selected based, at least in part, on the mean human T cell stimulation index of the candidate peptide in the set of peptides tested and the positivity index of the candidate peptide in the set of peptides tested (see, FIGS. 3 and 4). The human T cell stimulation index for the candidate peptide(s) is summed. For each individual, the human T cell stimulation index for the candidate peptide(s) is divided by the sum of the human T cells stimulation indices of the remaining peptides in the set of peptides tested to determine a percent of T cell reactivity as shown below:
Alternatively, the presence of T cell epitopes in the candidate peptide dependent on amino acids residues in an overlapping peptide located at either the N-terminus or C-terminus of the candidate peptide in the amino acid sequence of the protein antigen, but which epitopes are not present in the candidate peptide can be considered in calculating the percent of T cell reactivity in the candidate peptide by use of the following formula: [formula]
In this formula, "NT flanking peptide" refers to a peptide which comprises amino acid residues which overlap with amino acid residues located at the N-terminus of the candidate peptide in the amino acid sequence of the protein antigen from which the peptide is derived; "CT flanking peptide" refers to a peptide which comprises amino acid residues which overlap with amino acid residues located a the C-terminus of the candidate peptide in the amino acid sequence of the protein antigen from which the peptide is derived. In this calculation stimulation indices for the candidate peptide, the N-terminal flanking peptide and the C-terminal flanking peptide are added and divided by the sum total of the stimulation indices for the entire set of overlapping peptides obtain a percent of T cell reactivity for the candidate peptide. If a combination of two or more candidate peptides is selected each of which contains amino acid residues which overlap, this calculation cannot be used to determine a percent of T cell reactivity for each candidate peptide separately. However, a total percent of T cell reactivity for the combination of candidate peptides can be obtained. In this situation, the stimulation indices for all of the candidate peptides which overlap is included in the calculation. […]

Row | Substance | T cell response, Group I peptides ([1]; FIGS. 31a-b) | T cell stimulation index (S.I.) [2] | positivity index, comparison ([1]; FIGS. 31a-b) | positive T cell responses, modified peptides [1] | estimated range of T cell reactivity (% reactivity of peptide) ([2]; of total reactivity of the Der p I protein)
1 | DF I-22.2: VAATESAYLAYRNTSLDLSEQELVD, amino acid residues 40-64 of Der f I | positive responses | – | – | – | –
2 | DP I-1: Der p I peptide, amino acid residues 1-20 (TNACSINGNAPAEIDLRQMR) | positive response | – | – | – | –
3 | DP I-3: Der p I peptide (TVTPIRMQGGCGSCWAFSGVAATESAYLA) | – | 3.9 | – | – | –
4 | DP I-21.2: Der p I peptide; unique peptide (SINGNAPAEIDLRQMRTVTPIRMQ) | positive response | 3.6 | higher positivity index then either of the overlapping peptides, DP I-1 and DP I-2 | – | –
5 | DP I-23.31: modified Der p I peptide; unique peptide (DEEGVVQESYYRYVAREQSCRRPNAE) | positive T cell studies | 5.7 | – | all eighteen T cell lines responded positively | –
6 | DP I-26.6: modified Der p I peptide; unique peptide (DEGIKDLDAFRHYDGRTIIQRDNGYE) | positive T cell studies | 5.0 | – | all eighteen T cell lines responded positively | 12.3%-24
